Here are results for 42 compounds from patent US9399032B2, “Methods and compositions for treating degenerative and ischemic disorders” (The General Hospital Corporation, priority 2009, dated 2016).

Structures can show the parent of a compound that is named as a salt.

human H 1 receptor, sequence (P35367 whole entry): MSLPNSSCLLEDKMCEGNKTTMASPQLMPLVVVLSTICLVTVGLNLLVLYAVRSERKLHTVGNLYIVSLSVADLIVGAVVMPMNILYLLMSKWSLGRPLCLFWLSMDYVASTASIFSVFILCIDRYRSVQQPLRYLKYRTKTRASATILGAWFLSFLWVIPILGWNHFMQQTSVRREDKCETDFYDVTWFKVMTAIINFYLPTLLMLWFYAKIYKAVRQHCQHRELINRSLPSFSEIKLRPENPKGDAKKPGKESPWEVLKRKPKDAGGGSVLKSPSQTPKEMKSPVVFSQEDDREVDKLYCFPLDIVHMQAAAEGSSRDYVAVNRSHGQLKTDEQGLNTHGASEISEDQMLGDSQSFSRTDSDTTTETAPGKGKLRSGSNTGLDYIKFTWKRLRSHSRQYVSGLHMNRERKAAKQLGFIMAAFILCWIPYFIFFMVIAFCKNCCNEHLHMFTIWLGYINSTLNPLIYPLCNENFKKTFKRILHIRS

The target in the first assay is human H 1 receptor (Homo sapiens, UniProt P35367). The experiment in a line: H1 receptor competitive binding assay with [3H]pyrilamine. The settings on record: 3 nM [3H]pyrilamine. How it is done:
The ability of each enantiomer to bind to the H1 receptor was evaluated using a competitive binding experiment with the racemate. In vitro binding of R-meclizine (R-Mec) and S-meclizine (S-Mec) to human H 1 receptor was determined by competitive binding assays in the presence of 3 nM [3H]pyrilamine. Non-specific binding was determined in the presence of excess (1 μM) unlabeled Pyrilamine. IC50 were determined by non-linear regression analysis of the competition curves.
`Cc1cccc(CN2CCN([C@H](c3ccccc3)c3ccc(Cl)cc3)CC2)c1` [R-meclizine]: the “affinity on the H1 receptor” value is “high affinity”.

The next assay has as its system AMPK. Kind of assay: Western blot detection of AMPK phosphorylation. The class given is cell-based. The settings on record: C2C12 myotubes, 24 hours of treatment. As to the method: The ability of meclizine, S-meclizine and R-meclizine to activate AMPK in C2C12 myotubes was also evaluated using Western blot detection of AMPK phosphorylation in C2C12 myotubes following 24 hours of treatment with R-meclizine (R-Mec), S-meclizine (S-Mec) and the racemic mixture (Rac-Mec).
(A western blot detects proteins with antibodies after separation by electrophoresis.)
Turning to `Cc1cccc(CN2CCN([C@H](c3ccccc3)c3ccc(Cl)cc3)CC2)c1` [R-meclizine], the “AMPK activation (phosphorylation)” value is “activate AMPK”.

The next assay deals with Adult rat ventricular cardiomyocytes. The experiment in a line: Simulated ischemia-reperfusion injury in isolated cardiomyocytes. The class given is cell-based. The note with it: 60 minutes ischemia, 30 minutes reperfusion. As to the method:
The ability of meclizine to protect isolated cardiomyocytes and isolated hearts from ischemic injury was investigated as follows Adult rat ventricular cardiomyocytes were isolated by endotoxin-free collagenase perfusion, and the simulated ischemia-reperfusion injury was performed as previously described (Wojtovich and Brookes, Basic Res. Cardiol., 104:121-129 (2009)). Control cells were exposed to DMSO for 20 minutes. Test cells were exposed to either vehicle or doses of meclizine for 20 minutes, which was washed out before being subjected to ischemia for 60 minutes followed by reperfusion for 30 minutes under normoxic conditions in normoxic glucose-replete buffer at pH 7.4. Cell viability was assayed by Trypan blue exclusion. VO2 was assessed by isolating mitochondria and measuring both respirating cells and mitochondria using a Clark oxygen electrode (Wojtovich, supra).
For the compound `CN1[C@@H]2CC[C@H]1C[C@@H](OC(=O)C(CO)c1ccccc1)C2` (stereo partly shown) [atropine], the “protection of cardiomyocytes against I/R (cell viability, Trypan blue)” value (“protection of cardiomyocytes against I/R” for short) is listed as “not observed”.

For `CN(C)CCC(c1ccccc1)c1ccccn1` (stereo not shown) [pheniramine], the “protection of cardiomyocytes against I/R” value is given as “not observed”.

On to `COc1ccc(CN(CCN(C)C)c2ccccn2)cc1` [pyrilamine], for which the “protection of cardiomyocytes against I/R” value is “not observed”.

As for `CN1[C@@H]2C[C@@H](OC(=O)[C@H](CO)c3ccccc3)C[C@H]1[C@@H]1O[C@@H]12` [scopolamine], the “protection of cardiomyocytes against I/R” value is “not observed”.

For the next assay, the system named is MCH58 fibroblasts. The experiment in a line: Glucose versus galactose cell growth screen (metabolic state-dependent lethality).
Conditions: not given
For the compound `[O-][n+]1ccccc1[S-].[O-][n+]1ccccc1[S-].[Zn+2]` [pyrithione zinc], the “Sglu/gal (log10 fold change) Score” value is listed as −0.25.

On to `C[CH2][Hg][S]c1ccccc1C(=O)[O-].[Na+]` [thimerosal], for which the “Sglu/gal (log10 fold change) Score” value was −0.22.

The assay is the same for the next values; noted with them: approximately 10 μM compound, 72 hours; log10 fold change of normalized cell number in glucose versus galactose.
For `COc1ccc(C[C@H]2NC[C@H](O)[C@H]2OC(C)=O)cc1` [anisomycin], the “Sglu/gal (log10 fold change) Score” value is on record as −0.24.

On to `CC(=O)O[C@@H]1C[C@@]2(C)[C@H](c3ccoc3)C[C@H]3O[C@]32[C@]2(C)C(=O)C(O)=C3C(C)(C)C(=O)C=C[C@]3(C)[C@@H]12` [anthothecol], for which the “Sglu/gal (log10 fold change) Score” value is listed as −0.30.

With `CC[C@@]1(O)C(=O)OCc2c1cc1n(c2=O)Cc2cc3ccccc3nc2-1` [camptothecin], the “Sglu/gal (log10 fold change) Score” value is given as −0.26.

On to `C[C@@]12C(=O)OC(=O)[C@]1(C)[C@H]1CC[C@@H]2O1` [cantharidin], for which the “Sglu/gal (log10 fold change) Score” value was −0.33.

For `CC1(C)C(=O)C=C[C@@]2(C)C1=C(O)C(=O)[C@]1(C)[C@@H]2CC[C@@]2(C)[C@H](c3ccoc3)C[C@H]3O[C@]321` [cedrelone], the “Sglu/gal (log10 fold change) Score” value is reported as −0.22.

On to `CC1=C(O)C(=O)C=C2C1=CC=C1[C@@]2(C)CC[C@@]2(C)[C@@H]3C[C@](C)(C(=O)O)CC[C@]3(C)CC[C@]12C` [celastrol], for which the “Sglu/gal (log10 fold change) Score” value is given as −0.29.

As to `Oc1c(Cl)cc(Cl)c2cccnc12` [chloroxine], the “Sglu/gal (log10 fold change) Score” value is −0.23.

As to `C=C1C(=O)O[C@H]2C[C@@H]1C(OC(C)=O)C/C(C)=C/CC/C(C)=C/CC[C@@]2(C)O` (stereo partly shown) [crassin acetate], the “Sglu/gal (log10 fold change) Score” value is −0.35.

Consider `CO[C@H]1C=C[C@@]23c4cc5c(cc4CN(C[C@@H]2O)[C@H]3C1)OCO5` [crinamine], for which the “Sglu/gal (log10 fold change) Score” value is −0.22.

In the case of `Cc1c(O)c(O)cc2c1CC=C1[C@@]2(C)CC[C@@]2(C)[C@@H]3C[C@](C)(C(=O)O)CC[C@]3(C)CC[C@]12C` [dihydrocelastrol], the “Sglu/gal (log10 fold change) Score” value is given as −0.31.

`CC(C)=CCCC1(C)C=Cc2c(O)c3c(c(CC=C(C)C)c2O1)OC12C(=CC4CC1C(C)(C)OC2(C/C=C(/C)C(=O)O)C4O)C3=O` (stereo not shown) [dihydrogambogic acid]: the “Sglu/gal (log10 fold change) Score” value is on record as −0.32.

With `CC[C@H]1CN2CCc3cc(OC)c(OC)cc3[C@@H]2C[C@@H]1C[C@H]1NCCc2cc(OC)c(OC)cc21` [emetine], the “Sglu/gal (log10 fold change) Score” value is −0.22.

Take `O=c1[nH]c(=O)n([C@H]2C[C@H](O)[C@@H](CO)O2)cc1F` [floxuridine]: the “Sglu/gal (log10 fold change) Score” value is −0.28.

Turning to `CC(C)=CCC[C@]1(C)C=Cc2c(O)c3c(c(CC=C(C)C)c2O1)O[C@]12C(=C[C@@H]4C[C@H]1C(C)(C)O[C@@]2(C/C=C(/C)C(=O)O)C4=O)C3=O` [gambogic acid], the “Sglu/gal (log10 fold change) Score” value was −0.34.

As to `CC(=O)O[C@H]1CC[C@@]2(C)[C@H](CC[C@@H]3[C@@H]2CC[C@]2(C)[C@@H](C4=CC(=O)OC4)[C@@H](OC(C)=O)C[C@]32O)C1` [gitoxigenin diacetate], the “Sglu/gal (log10 fold change) Score” value is recorded as −0.21.

`C=C1C(=O)O[C@@H]2C[C@@]3(C)CCC[C@H](C)C3=C[C@H]12` [helenine]: the “Sglu/gal (log10 fold change) Score” value is reported as −0.22.

`CC[n+]1c(-c2ccccc2)c2cc(N)ccc2c2ccc(N)cc21` [homidium bromide]: the “Sglu/gal (log10 fold change) Score” value was −0.54.

Regarding `Cl.Cl.O=C1c2c(O)ccc(O)c2C(=O)c2c(NCCNCCO)ccc(NCCNCCO)c21` [mitoxanthrone hydrochloride], the “Sglu/gal (log10 fold change) Score” value was −0.73.

Turning to `CO[C@H]1[C@H](O)[C@H](O[C@H]2CC[C@@]3(C)[C@H](CC[C@@H]4[C@@H]3CC[C@]3(C)[C@@H](C5=CC(=O)OC5)CC[C@]43O)C2)O[C@@H](C)[C@@H]1O` [neriifolin], the “Sglu/gal (log10 fold change) Score” value is listed as −0.21.

Consider `CO[C@@H]1C[C@@H](C[C@H]2CC[C@H](C)[C@H]([C@@H](C)C(=O)O)O2)O[C@]2(O[C@](C)([C@H]3CC[C@@](C)([C@@H]4O[C@@H]([C@H]5O[C@@](O)(CO)[C@H](C)C[C@@H]5C)C[C@@H]4C)O3)C[C@H]2C)[C@@H]1C` [nigericin sodium], for which the “Sglu/gal (log10 fold change) Score” value was −0.31.

For `CC(=O)O[C@H]1C(=O)[C@@]2(C)[C@H]([C@H](OC(=O)c3ccccc3)[C@]3(O)C[C@H](OC(=O)[C@H](O)[C@@H](NC(=O)c4ccccc4)c4ccccc4)C(C)=C1C3(C)C)[C@]1(OC(C)=O)CO[C@@H]1C[C@@H]2O` [paclitaxel], the “Sglu/gal (log10 fold change) Score” value was −0.22.

Take `COC(=O)[C@]1(C)CC[C@]2(C)CC[C@]3(C)C4=CC=C5C(=CC(=O)C(O)=C5C)[C@]4(C)CC[C@@]3(C)[C@@H]2C1` [pristimerin]: the “Sglu/gal (log10 fold change) Score” value was −0.37.

In the case of `COC(=O)[C@]1(C)CC[C@]2(C)CC[C@]3(C)C4=CCc5c(cc(O)c(O)c5C)[C@]4(C)CC[C@@]3(C)[C@@H]2C1` [pristimerol], the “Sglu/gal (log10 fold change) Score” value is listed as −0.45.

As for `CC(C)N(C(=O)CCl)c1ccccc1` [propachlor], the “Sglu/gal (log10 fold change) Score” value is reported as −0.26.

Turning to `CC[C@@]1(O)C[C@H](O[C@H]2C[C@H](N(C)C)[C@H](O)[C@H](C)O2)c2c(cc3c(c2O)C(=O)c2c(O)ccc(O)c2C3=O)[C@H]1C(=O)OC` [pyrromycin], the “Sglu/gal (log10 fold change) Score” value is −0.30.

Take `CCN(CC)CCCC(C)Nc1c2ccc(Cl)cc2nc2ccc(OC)cc12` (stereo not shown) [quinacrine hydrochloride]: the “Sglu/gal (log10 fold change) Score” value was −0.30.

As for `C[C@]12CC[C@H](O)C[C@H]1CC[C@@H]1[C@@H]2[C@H](O)C[C@]2(C)[C@@H](C3=CC(=O)OC3)CC[C@]12O` [sarmentogenin], the “Sglu/gal (log10 fold change) Score” value is recorded as −0.21.

For `C[C@H]1CC[C@]2(NC1)O[C@H]1C[C@H]3[C@@H]4CC[C@H]5C[C@@H](O[C@@H]6O[C@H](CO)[C@H](O[C@@H]7O[C@H](CO)[C@@H](O)[C@H](O[C@@H]8OC[C@@H](O)[C@H](O)[C@H]8O)[C@H]7O[C@@H]7O[C@H](CO)[C@@H](O)[C@H](O)[C@H]7O)[C@H](O)[C@H]6O)CC[C@]5(C)[C@H]4CC[C@]3(C)[C@H]1[C@@H]2C` [tomatine], the “Sglu/gal (log10 fold change) Score” value is −0.64.

As for `CC[C@]1(O)C[C@@H]2CN(CCc3c([nH]c4ccccc34)[C@@](C(=O)OC)(c3cc4c(cc3OC)N(C)[C@H]3[C@@](O)(C(=O)OC)[C@H](OC(C)=O)[C@]5(CC)C=CCN6CC[C@]43[C@@H]65)C2)C1` [vinblastine sulfate], the “Sglu/gal (log10 fold change) Score” value is reported as −0.27.

Clofilium tosylate: the “Sglu/gal (log10 fold change) Score” value is given as 0.42.

For the compound Deguelin(-), the “Sglu/gal (log10 fold change) Score” value is recorded as 0.69.

Nonoxynol-9: the “Sglu/gal (log10 fold change) Score” value was determined as 0.46.

For the compound picropodophyllotoxin acetate, the “Sglu/gal (log10 fold change) Score” value is recorded as −0.24.

The same assay, now with this note: galactose versus glucose.
`CN1CCN(C(c2ccccc2)c2ccc(Cl)cc2)CC1` (stereo not shown) [chlorcyclizine]: the “inhibitory activity against cell growth in galactose (SAR analysis)” value is reported as “more potent than that of homopiperazine analogue”.

Take `CNCCC=C1c2ccccc2CCc2ccccc21` [nortriptyline]: the “inhibitory activity against cell growth in galactose (SAR analysis)” value was “moderate inhibitory activity”.
